Each block holds one molecule with its values, some of them ahead of it.
Legend:
Edg1 (S1P1 receptor) = biological target: T1, Edg1 (S1P1 receptor) (Homo sapiens, UniProt P21453); experiment: GTP-γ-35S binding, agonist activity at Edg1 (S1P1); assay type: biochemical; conditions: membranes of transfected HEK 293 or CHOK1 cells, [35S]GTP-γ-S; read-out: In-Vitro potency EC50 (nM) Edg1
T1 construct: expressed in transfected cells; host or cells: HEK 293 or CHOK1 (membranes)
Description: Human S1P1-5 receptor subtypes were stably expressed in high levels in HEK 293 or CHOK1 cells following transfection with corresponding plasmid constructs. Although the native cells somewhat respond to S1P, the level of expression and responsiveness of the antibiotic-resistant transfected cell lines that were selected is much higher.
When cultivated cells reached 80% confluence, they were collected and, after lysis, cell membranes were collected by centrifugation and washed in buffer containing antiproteases.
GTP-γ-^35S binding was performed using ˜5 μg protein of cell membranes suspended in 50 mM tris-HCl pH 7.5 containing 10 mM MgCl2, 100 mM NaCl and 10 μM GDP. The radioligand was 0.025 nM [^35S] GTP-γ-S and non specific binding determined in the presence of 10 μM non-radioactive GTP-γ-S. S1P and receptor agonists enhance the specific binding whereas inverse agonists reduce it. The maximal stimulation elicited by S1P was taken as a reference to define full or partial agonism and calculate the intrinsic activity (i.a.) of compounds.

[1] = test system: blood lymphocytes (S1P1 receptors in vivo); experiment: Lymphopenia in vivo after oral administration; conditions: Swiss mice; for ED50: Mus musculus, Lymphocyte, at 24 h
Procedure: Lymphopenia was assessed in vivo. Experiments were done in Swiss mice strain (n=5 per condition). Compounds were administered orally in suspension in methyl-cellulose 1% from 1 h 30 until 48 hours before the experiments. Blood was taken on anesthetized animal (4% isoflurane) and samples collected in EDTA-containing vacuum tubes. After 5 minutes stirring, cells were counted using ABC vet hemocytometer (Scil vet animal Care)

Edg5 = biological target: T2, Edg5 (Homo sapiens, UniProt O95136); experiment: GTP-γ-35S binding, agonist activity at Edg5; assay type: biochemical; conditions: membranes of transfected HEK 293 or CHOK1 cells, [35S]GTP-γ-S; read-out: In-Vitro potency EC50 (nM) Edg5
T2 construct: expressed in transfected cells; host or cells: HEK 293 or CHOK1 (membranes)
Description: (§1) Human S1P1-5 receptor subtypes were stably expressed in high levels in HEK 293 or CHOK1 cells following transfection with corresponding plasmid constructs. Although the native cells somewhat respond to S1P, the level of expression and responsiveness of the antibiotic-resistant transfected cell lines that were selected is much higher. When cultivated cells reached 80% confluence, they were collected and, after lysis, cell membranes were collected by centrifugation and washed in buffer containing antiproteases. GTP-γ-^35S binding was performed using ˜5 μg protein of cell membranes suspended in 50 mM tris-HCl pH 7.5 containing 10 mM MgCl2, 100 mM NaCl and 10 μM GDP. The radioligand was 0.025 nM [^35S] GTP-γ-S and non specific binding determined in the presence of 10 μM non-radioactive GTP-γ-S. S1P and receptor agonists enhance the specific binding whereas inverse agonists reduce it. The maximal stimulation elicited by S1P was taken as a reference to define full or partial agonism and calculate the intrinsic activity (i.a.) of compounds.

Edg3 (S1P3 receptor) = biological target: T3, Edg3 (S1P3 receptor) (Homo sapiens, UniProt Q99500); experiment: GTP-γ-35S binding, agonist activity at Edg3 (S1P3); assay type: biochemical; conditions: membranes of transfected HEK 293 or CHOK1 cells, [35S]GTP-γ-S; read-out: In-Vitro potency EC50 (nM) Edg3
T3 construct: expressed in transfected cells; host or cells: HEK 293 or CHOK1 (membranes)
Description: as §1

T1 sequence (P21453 whole entry): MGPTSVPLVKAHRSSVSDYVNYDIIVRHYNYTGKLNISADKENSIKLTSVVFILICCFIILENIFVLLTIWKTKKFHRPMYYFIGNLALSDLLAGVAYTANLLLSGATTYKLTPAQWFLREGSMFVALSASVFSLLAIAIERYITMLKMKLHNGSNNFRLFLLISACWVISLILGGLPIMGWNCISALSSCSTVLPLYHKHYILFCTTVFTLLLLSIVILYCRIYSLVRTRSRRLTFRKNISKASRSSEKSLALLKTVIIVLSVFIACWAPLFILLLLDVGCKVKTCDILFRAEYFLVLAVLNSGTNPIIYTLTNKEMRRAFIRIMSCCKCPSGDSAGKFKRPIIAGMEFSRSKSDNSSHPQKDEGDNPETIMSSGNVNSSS
T3 sequence (Q99500 whole entry): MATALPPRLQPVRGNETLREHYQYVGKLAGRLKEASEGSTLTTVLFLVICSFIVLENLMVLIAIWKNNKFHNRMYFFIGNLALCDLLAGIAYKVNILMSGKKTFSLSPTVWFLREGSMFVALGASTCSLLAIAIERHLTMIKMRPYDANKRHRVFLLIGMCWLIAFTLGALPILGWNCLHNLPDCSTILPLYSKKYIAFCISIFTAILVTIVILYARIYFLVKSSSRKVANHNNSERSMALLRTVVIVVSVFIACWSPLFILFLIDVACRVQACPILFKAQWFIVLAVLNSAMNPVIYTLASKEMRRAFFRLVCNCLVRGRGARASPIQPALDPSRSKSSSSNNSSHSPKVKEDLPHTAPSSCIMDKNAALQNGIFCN
T2 sequence (O95136 whole entry): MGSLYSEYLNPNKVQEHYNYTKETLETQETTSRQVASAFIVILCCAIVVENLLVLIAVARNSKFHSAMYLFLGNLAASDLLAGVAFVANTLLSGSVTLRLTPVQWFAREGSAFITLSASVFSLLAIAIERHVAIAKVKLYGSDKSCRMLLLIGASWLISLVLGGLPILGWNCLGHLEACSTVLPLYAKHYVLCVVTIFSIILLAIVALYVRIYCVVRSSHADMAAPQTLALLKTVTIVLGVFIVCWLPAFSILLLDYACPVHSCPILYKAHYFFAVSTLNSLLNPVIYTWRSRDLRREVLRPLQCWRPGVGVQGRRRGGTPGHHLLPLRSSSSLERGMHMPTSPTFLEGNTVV

- EC50 (Edg1 (S1P1 receptor)): 6.3 nM
Compound: CC(C)(C)C(=O)COC(=O)C1(C(=O)O)CCN(Cc2ccc(-c3noc(-c4ccc(-c5ccccc5)c(F)c4)n3)cc2)CC1 [Example 62, 1-{4-[5-(2-fluorobiphenyl-4-yl)[1,2,4]oxadiazol-3-yl]benzyl}-piperidine-4,4-dicarboxylic acid (3,3-dimethyl-2-oxobutyl)ester]
- ED50 [1]: 0.03 mg/kg

- EC50 (Edg5): > 1000 nM
- EC50 (Edg1 (S1P1 receptor)): 2.2 nM
- EC50 (Edg3 (S1P3 receptor)): > 1000 nM
Compound: CO/N=C(/c1ccco1)c1nc(-c2ccc(CN3CCC(C(=O)O)(C(=O)O)CC3)cc2)no1 [Example 22]

- EC50 (Edg1 (S1P1 receptor)): 1.7 nM
Compound: C=C(C)[C@@H]1CC=C(c2nc(-c3ccc(CN4CCC(C(=O)O)(C(=O)O)CC4)cc3)no2)CC1 [Example 25]

- EC50 (Edg5): > 1000 nM
- EC50 (Edg1 (S1P1 receptor)): 0.7 nM
- EC50 (Edg3 (S1P3 receptor)): > 1000 nM
Compound: O=C(O)C1(C(=O)O)CCN(Cc2ccc(-c3noc(-c4ccc(-c5ccccc5)cc4)n3)cc2)CC1 [Example 15]

Further lines, the molecule ahead of its results:

Compound: COC(=O)C1(C(=O)O)CC(N(C)Cc2ccc(-c3noc(-c4ccc(CC(C)C)cc4)n3)cc2)C1 (single isomer, unassigned) [Example 54]
- EC50 (Edg1 (S1P1 receptor)): 11.8 nM

Compound: Cl.O=C(O)C1(C(=O)O)CC(NCc2ccc(-c3noc(-c4ccc(-c5ccccc5)c(F)c4)n3)cc2)C1 [Example 49]
- % lymphopenia ([1]; at 10 mg/kg, after 24 h): at 10 mg/kg 86% lymphopenia after 24 h

Compound: COC(=O)C1(C(=O)O)CCN(Cc2ccc(-c3noc(-c4ccc(CC(C)C)cc4)n3)cc2)CC1 [Example 8]
- ED50 [1]: 3.5 mg/kg

Reference: US8809539B2, “Dicarboxylic acid derivatives as S1P1 receptor agonists” (Bioprojet, priority 2007, dated 2014)
